Experimental data published in ChEMBL document CHEMBL2380302, “Synthesis of 3-O-propargylated betulinic acid and its 1,2,3-triazoles as potential apoptotic agents” (Eur J Med Chem, 2013).

What was measured:
[1] = test system: HCT-15; test: Cytotoxicity against human HCT15 cells at 10 uM after 48 hrs by SRB assay; assay type: functional; settings: HCT-15, 48 h, read-out: GI
[2] = test system: SF-295; test: Cytotoxicity against human SF295 cells at 10 uM after 48 hrs by SRB assay; assay type: functional; settings: SF-295, 48 h, read-out: GI
[3] = test system: A549; test: Cytotoxicity against human A549 cells at 10 uM after 48 hrs by SRB assay; assay type: functional; settings: A549, 48 h, read-out: GI
[4] = test system: MCF7; test: Cytotoxicity against human MCF7 cells at 10 uM after 48 hrs by SRB assay; assay type: functional; settings: MCF7, 48 h, read-out: GI
[5] = test system: HEp-2; test: Cytotoxicity against human Hep2 cells at 10 uM after 48 hrs by SRB assay; assay type: functional; settings: HEp-2, 48 h, read-out: GI
[6] = test system: PC-3; test: Cytotoxicity against human PC3 cells at 10 uM after 48 hrs by SRB assay; assay type: functional; settings: PC-3, 48 h, read-out: GI
[7] = test system: DU-145; test: Cytotoxicity against human DU145 cells at 10 uM after 48 hrs by SRB assay; assay type: functional; settings: DU-145, 48 h, read-out: GI
[8] = test system: HL-60; test: Cytotoxicity against human HL60 cells at 10 uM after 48 hrs by SRB assay; assay type: functional; settings: HL-60, 48 h, read-out: GI
[9] = test system: THP-1; test: Cytotoxicity against human THP1 cells at 10 uM after 48 hrs by SRB assay; assay type: functional; settings: THP-1, 48 h, read-out: GI
[10] = test system: HCT-15; test: Cytotoxicity against human HCT15 cells at 30 uM after 48 hrs by SRB assay; assay type: functional; settings: HCT-15, 48 h, read-out: GI
[11] = test system: SF-295; test: Cytotoxicity against human SF295 cells at 30 uM after 48 hrs by SRB assay; assay type: functional; settings: SF-295, 48 h, read-out: GI
[12] = test system: A549; test: Cytotoxicity against human A549 cells at 30 uM after 48 hrs by SRB assay; assay type: functional; settings: A549, 48 h, read-out: GI
[13] = test system: MCF7; test: Cytotoxicity against human MCF7 cells at 30 uM after 48 hrs by SRB assay; assay type: functional; settings: MCF7, 48 h, read-out: GI
[14] = test system: HEp-2; test: Cytotoxicity against human Hep2 cells at 30 uM after 48 hrs by SRB assay; assay type: functional; settings: HEp-2, 48 h, read-out: GI
[15] = test system: PC-3; test: Cytotoxicity against human PC3 cells at 30 uM after 48 hrs by SRB assay; assay type: functional; settings: PC-3, 48 h, read-out: GI
[16] = test system: DU-145; test: Cytotoxicity against human DU145 cells at 30 uM after 48 hrs by SRB assay; assay type: functional; settings: DU-145, 48 h, read-out: GI
[17] = test system: HL-60; test: Cytotoxicity against human HL60 cells at 30 uM after 48 hrs by SRB assay; assay type: functional; settings: HL-60, 48 h, read-out: GI
[18] = test system: THP-1; test: Cytotoxicity against human THP1 cells at 30 uM after 48 hrs by SRB assay; assay type: functional; settings: THP-1, 48 h, read-out: GI
[19] = test system: HCT-15; test: Cytotoxicity against human HCT15 cells at 50 uM after 48 hrs by SRB assay; assay type: functional; settings: HCT-15, 48 h, read-out: GI
[20] = test system: SF-295; test: Cytotoxicity against human SF295 cells at 50 uM after 48 hrs by SRB assay; assay type: functional; settings: SF-295, 48 h, read-out: GI
[21] = test system: A549; test: Cytotoxicity against human A549 cells at 50 uM after 48 hrs by SRB assay; assay type: functional; settings: A549, 48 h, read-out: GI
[22] = test system: MCF7; test: Cytotoxicity against human MCF7 cells at 50 uM after 48 hrs by SRB assay; assay type: functional; settings: MCF7, 48 h, read-out: GI
[23] = test system: HEp-2; test: Cytotoxicity against human Hep2 cells at 50 uM after 48 hrs by SRB assay; assay type: functional; settings: HEp-2, 48 h, read-out: GI
[24] = test system: PC-3; test: Cytotoxicity against human PC3 cells at 50 uM after 48 hrs by SRB assay; assay type: functional; settings: PC-3, 48 h, read-out: GI
[25] = test system: HL-60; test: Cytotoxicity against human HL60 cells at 50 uM after 48 hrs by SRB assay; assay type: functional; settings: HL-60, 48 h, read-out: GI
[26] = test system: DU-145; test: Cytotoxicity against human DU145 cells at 50 uM after 48 hrs by SRB assay; assay type: functional; settings: DU-145, 48 h, read-out: GI
[27] = test system: THP-1; test: Cytotoxicity against human THP1 cells at 50 uM after 48 hrs by SRB assay; assay type: functional; settings: THP-1, 48 h, read-out: GI
[28] = test system: HCT-15; test: Cytotoxicity against human HCT15 cells after 48 hrs by SRB assay; assay type: functional, cell-based; settings: HCT-15, 48 h
[29] = test system: A549; test: Cytotoxicity against human A549 cells after 48 hrs by SRB assay; assay type: functional, cell-based; settings: A549, 48 h
[30] = test system: SF-295; test: Cytotoxicity against human SF295 cells after 48 hrs by SRB assay; assay type: functional, cell-based; settings: SF-295, 48 h
[31] = test system: MCF7; test: Cytotoxicity against human MCF7 cells after 48 hrs by SRB assay; assay type: functional, cell-based; settings: MCF7, 48 h
[32] = test system: HEp-2; test: Cytotoxicity against human Hep2 cells after 48 hrs by SRB assay; assay type: functional, cell-based; settings: HEp-2, 48 h
[33] = test system: PC-3; test: Cytotoxicity against human PC3 cells after 48 hrs by SRB assay; assay type: functional, cell-based; settings: PC-3, 48 h
[34] = test system: DU-145; test: Cytotoxicity against human DU145 cells after 48 hrs by SRB assay; assay type: functional, cell-based; settings: DU-145, 48 h
[35] = test system: HL-60; test: Cytotoxicity against human HL60 cells after 48 hrs by SRB assay; assay type: functional, cell-based; settings: HL-60, 48 h
[36] = test system: THP-1; test: Cytotoxicity against human THP1 cells after 48 hrs by SRB assay; assay type: functional, cell-based; settings: THP-1, 48 h

Compound | inhibition of growth at 10 µM [1] [%] | inhibition of growth at 10 µM [2] [%] | inhibition of growth at 10 µM [3] [%] | inhibition of growth at 10 µM [4] [%] | inhibition of growth at 10 µM [5] [%] | inhibition of growth at 10 µM [6] [%] | inhibition of growth at 10 µM [7] [%] | inhibition of growth at 10 µM [8] [%] | inhibition of growth at 10 µM [9] [%] | inhibition of growth at 30 µM [10] [%] | inhibition of growth at 30 µM [11] [%] | inhibition of growth at 30 µM [12] [%] | inhibition of growth at 30 µM [13] [%] | inhibition of growth at 30 µM [14] [%] | inhibition of growth at 30 µM [15] [%] | inhibition of growth at 30 µM [16] [%] | inhibition of growth at 30 µM [17] [%] | inhibition of growth at 30 µM [18] [%] | inhibition of growth at 50 µM [19] [%] | inhibition of growth at 50 µM [20] [%] | other results
C=C(C)[C@@H]1CC[C@]2(C(=O)O)CC[C@]3(C)[C@H](CC[C@@H]4[C@@]5(C)CC[C@H](OCc6cn(-c7ccc([N+](=O)[O-])cc7)nn6)C(C)(C)[C@@H]5CC[C@]43C)[C@@H]12 | 36 | 52 | 28 | 20 | 43 | 48 | 43 | 63 | 51 | 52 | 72 | 49 | 44 | 54 | 59 | 54 | 78 | 68 | 65 | 87 | inhibition of growth at 50 µM [21]: 62%; inhibition of growth at 50 µM [22]: 53%; inhibition of growth at 50 µM [23]: 72%; inhibition of growth at 50 µM [24]: 74%; inhibition of growth at 50 µM [25]: 94%; inhibition of growth at 50 µM [26]: 72%; inhibition of growth at 50 µM [27]: 93%; IC50 [28]: 28 µM; IC50 [29]: 15 µM; IC50 [30]: 8 µM; IC50 [31]: 38 µM; IC50 [32]: 15 µM; IC50 [33]: 13 µM; IC50 [34]: 24 µM; IC50 [35]: 4.5 µM; IC50 [36]: 9 µM
C=C(C)[C@@H]1CC[C@]2(C(=O)O)CC[C@]3(C)[C@H](CC[C@@H]4[C@@]5(C)CC[C@H](OCc6cn(-c7cc(C)cc(O)c7)nn6)C(C)(C)[C@@H]5CC[C@]43C)[C@@H]12 | 28 | 23 | 23 | 70 | 9 | 47 | 10 | 24 | 15 | 56 | 75 | 59 | 96 | 25 | 74 | 51 | 90 | 85 | 66 | 90 | inhibition of growth at 50 µM [21]: 71%; inhibition of growth at 50 µM [22]: 96%; inhibition of growth at 50 µM [23]: 42%; inhibition of growth at 50 µM [24]: 91%; inhibition of growth at 50 µM [25]: 98%; inhibition of growth at 50 µM [26]: 97%; inhibition of growth at 50 µM [27]: 99%; IC50 [28]: 26 µM; IC50 [29]: 26 µM; IC50 [30]: 19 µM; IC50 [31]: 3.8 µM; IC50 [32]: > 50 µM; IC50 [33]: 13 µM; IC50 [34]: 28 µM; IC50 [35]: 14 µM; IC50 [36]: 18 µM
C=C(C)[C@@H]1CC[C@]2(C(=O)O)CC[C@]3(C)[C@H](CC[C@@H]4[C@@]5(C)CC[C@H](OCc6cn(-c7ccc(Cl)cc7)nn6)C(C)(C)[C@@H]5CC[C@]43C)[C@@H]12 | 46 | 5 | 52 | 42 | 28 | 22 | 28 | 61 | 50 | 53 | 20 | 59 | 63 | 43 | 40 | 43 | 74 | 69 | 66 | 32 | inhibition of growth at 50 µM [21]: 83%; inhibition of growth at 50 µM [22]: 80%; inhibition of growth at 50 µM [23]: 55%; inhibition of growth at 50 µM [24]: 53%; inhibition of growth at 50 µM [25]: 96%; inhibition of growth at 50 µM [26]: 55%; inhibition of growth at 50 µM [27]: 94%; IC50 [28]: 13 µM; IC50 [29]: 8 µM; IC50 [30]: > 50 µM; IC50 [31]: 15 µM; IC50 [32]: 44 µM; IC50 [33]: 43 µM; IC50 [34]: 34 µM; IC50 [35]: 5.5 µM; IC50 [36]: 10 µM
C=C(C)[C@@H]1CC[C@]2(C(=O)O)CC[C@]3(C)[C@H](CC[C@@H]4[C@@]5(C)CC[C@H](OCc6cn(-c7ccc(OC)cc7)nn6)C(C)(C)[C@@H]5CC[C@]43C)[C@@H]12 | 55 | 20 | 38 | 44 | 41 | 5 | 35 | 54 | 50 | 55 | 46 | 40 | 62 | 54 | 8 | 37 | 82 | 77 | 57 | 59 | inhibition of growth at 50 µM [21]: 51%; inhibition of growth at 50 µM [22]: 93%; inhibition of growth at 50 µM [23]: 74%; inhibition of growth at 50 µM [24]: 52%; inhibition of growth at 50 µM [25]: 99%; inhibition of growth at 50 µM [26]: 53%; inhibition of growth at 50 µM [27]: 97%; IC50 [28]: 8 µM; IC50 [29]: 50 µM; IC50 [30]: 44 µM; IC50 [31]: 14 µM; IC50 [32]: 23 µM; IC50 [33]: 49 µM; IC50 [34]: 48 µM; IC50 [35]: 8 µM; IC50 [36]: 10 µM
C=C(C)[C@@H]1CC[C@]2(C(=O)O)CC[C@]3(C)[C@H](CC[C@@H]4[C@@]5(C)CC[C@H](OCc6cn(-c7cccc(I)c7)nn6)C(C)(C)[C@@H]5CC[C@]43C)[C@@H]12 | 29 | 6 | 28 | 51 | 71 | 8 | 23 | 13 | 9 | 45 | 27 | 27 | 58 | 74 | 24 | 62 | 45 | 41 | 54 | 66 | inhibition of growth at 50 µM [21]: 33%; inhibition of growth at 50 µM [22]: 61%; inhibition of growth at 50 µM [23]: 72%; inhibition of growth at 50 µM [24]: 27%; inhibition of growth at 50 µM [25]: 64%; inhibition of growth at 50 µM [26]: 62%; inhibition of growth at 50 µM [27]: 56%; IC50 [28]: 39 µM; IC50 [29]: > 50 µM; IC50 [30]: 44 µM; IC50 [31]: 8 µM; IC50 [32]: 3.8 µM; IC50 [33]: 39 µM; IC50 [34]: 25 µM; IC50 [35]: 43 µM; IC50 [36]: 46 µM
